From patent publication US20260193271A1, “PAN-KRAS INHIBITOR COMPOUND” (ADLAI NORTYE BIOPHARMA CO., LTD., priority 2022, published 2026)

system: AsPC-1 (G12D); assay: In vitro cell proliferation inhibition test (CellTiter-Glo), AsPC-1; format: cell-based; settings: AsPC-1 pancreas cell line, KRAS (p.G12D), 72 h co-incubation
Source text: Test Example 1: In Vitro Cell Proliferation Inhibition Test
Due to the diversity of RAS mutations and in order to evaluate the activity of compounds in different RAS mutation cell lines, we selected KRAS^WT, KRAS^G12C, KRAS^G12D, KRAS^G12V and BRAF mutation cell lines (see the table below) for in vitro activity evaluation and screening of compounds.
Protocol: CellTiter-Glo® Cell Luminescent Viability Assay (Promega)
According to the doubling time of different cell lines, different numbers of cells (1000-5000 cells/well) were seeded in 96-well plates containing 180 μl of corresponding culture medium and cultured overnight in a cell culture incubator at 37° C. with 5% CO2. On the second day, the test compound was pre-diluted 3-fold with culture medium, with the highest concentration being 100 μM, for a total of 10 concentration gradients; then 20 μl of culture medium containing different concentrations of the compound was added to the cells in the 96-well plate to ensure that the final concentration of the compound was up to 10 μM, with 10 concentration gradients of 3-fold dilution. After the cells and compounds were co-incubated for 72 h, the 96-well plate was removed from the incubator and equilibrated at room temperature for 30 min. Then, 25 μl of CellTiter-Glo® Reagent was added to each well and mixed thoroughly. The mixture was incubated at room temperature for 10 min, and then 100 μl of the sample was transferred to a white 96-well plate (OptiPlate™-96, PerkinElmer). The […] signal value was read using a multi-function microplate reader (SpectraMax® i3x, Molecular devices). The signal values were then standardized, and the curve was fitted using a four-parameter regression equation to calculate the half maximal inhibitory concentration (IC50) of the compound on the cell line.

In order of rising IC50:
1. CCn1c(-c2cc(-c3cc(C4CN(C)CCO4)on3)cnc2C(C)OC)c2c3cc(ccc31)-c1csc(n1)CC(NC(=O)C1C(C)C1C)C(=O)N1CCCC(N1)C(=O)OCC(C)(C)C2 [Compound 26′, (1r,2R,3S)-N-((6^3S,4S,Z)-1^1-ethyl-1^2-(2-((S)-1-methoxyethyl)-5-(5-((R)-4-methylmorpholin-2-yl)isoxazol-3-yl)pyridin-3-yl)-10,10-dimethyl-5,7-dioxo-6^1,6^2,6^3,6^4,6^5,6^6-hexahydro-1^1H-8-oxa-2(4,2)-thiazola-1(5,3)-indola-6(1,3)-pyridazinacycloundecaphane-4-yl)-2,3-dimethylcyclopropane-1-carboxamide]  13 nM
2. CCn1c(-c2cc(-c3cc(C4COCCN4C)on3)cnc2C(C)OC)c2c3cc(ccc31)-c1csc(n1)CC(NC(=O)C1C(C)C1C)C(=O)N1CCCC(N1)C(=O)OCC(C)(C)C2 [Compound 32′, (1r,2R,3S)-N-((6^3S,4S,Z)-1^1-ethyl-1^2-(2-((S)-1-methoxyethyl)-5-(5-((S)-4-methylmorpholin-3-yl)isoxazol-3-yl)pyridin-3-yl)-10,10-dimethyl-5,7-dioxo-6^1,6^2,6^3,6^4,6^5,6^6-hexahydro-1^1H-8-oxa-2(4,2)-thiazola-1(5,3)-indola-6(1,3)-pyridazinacycloundecaphane-4-yl)-2,3-dimethylcyclopropane-1-carboxamide]  33 nM
3. (1S,2S)-N-((6^3S,4S,Z)-1^1-ethyl-1^2-(2-((S)-1-methoxyethyl)-5-(5-(1-methylazetidin-3-yl)isoxazol-3-yl)pyridin-3-yl)-10,10-dimethyl-5,7-dioxo-6^1,6^2,6^3,6^4,6^5,6^6-hexahydro-1^1H-8-oxa-2(4,2)-thiazola-1(5,3)-indola-6(1,3)-pyridazinacycloundecaphane-4-yl)-2-methylcyclopropane-1-carboxamide [Compound 31′]  53 nM
4. (1S,2S)-N-((6^3S,4S,Z)-1^1-ethyl-1^2-(2-((S)-1-methoxyethyl)-5-(5-(1-methylpiperidin-4-yl)isoxazol-3-yl)pyridin-3-yl)-10,10-dimethyl-5,7-dioxo-6^1,6^2,6^3,6^4,6^5,6^6-hexahydro-1^1H-8-oxa-2(4,2)-thiazola-1(5,3)-indola-6(1,3)-pyridazinacycloundecaphane-4-yl)-2-methylcyclopropane-1-carboxamide [Compound 30′]  60 nM
5. CCn1c(-c2cc(-c3nnc(C)n3C)cnc2C(C)OC)c2c3cc(ccc31)-c1csc(n1)CC(NC(=O)C1CC1C)C(=O)N1CCCC(N1)C(=O)OCC(C)(C)C2 [Compound 20′, (1S,2S)-N-((6^3S,4S,Z)-1^2-(5-(4,5-dimethyl-4H-1,2,4-triazol-3-yl)-2-((S)-1-methoxyethyl)pyridin-3-yl)-1^1-ethyl-10,10-dimethyl-5,7-dioxo-6^1,6^2,6^3,6^4,6^5,6^6-hexahydro-1^1H-8-oxa-2(4,2)-thiazola-1(5,3)-indola-6(1,3)-pyridazinacycloundecaphane-4-yl)-2-methylcyclopropane-1-carboxamide]  87 nM
6. CCn1c(-c2cc(-c3ccc(CN4CCOCC4)nc3)cnc2C(C)OC)c2c3cc(ccc31)-c1csc(n1)CC(NC(=O)C1CC1C)C(=O)N1CCCC(N1)C(=O)OCC(C)(C)C2 [Compound 5′, (1S,2S)-N-((6^3S,4S,Z)-1^1-ethyl-1^2-(6-((S)-1-methoxyethyl)-6′-(morpholinomethyl)-[3,3′-bipyridin]-5-yl)-10,10-dimethyl-5,7-dioxo-6^1,6^2,6^3,6^4,6^5,6^6-hexahydro-1^1H-8-oxa-2(4,2)-thiazola-1(5,3)-indola-6(1,3)-pyridazinacycloundecaphane-4-yl)-2-methylcyclopropane-1-carboxamide]  99 nM
7. CCn1c(-c2cc(-c3cc(C4(C)CN(C)C4)on3)cnc2C(C)OC)c2c3cc(ccc31)-c1csc(n1)CC(NC(=O)C1C(C)C1C)C(=O)N1CCCC(N1)C(=O)OCC(C)(C)C2 [Compound 34′, (1r,2R,3S)-N-((6^3S,4S,Z)-1^2-(5-(5-(1,3-dimethylazetidin-3-yl)isoxazol-3-yl)-2-((S)-1-methoxyethyl)pyridin-3-yl)-1^1-ethyl-10,10-dimethyl-5,7-dioxo-6^1,6^2,6^3,6^4,6^5,6^6-hexahydro-1^1H-8-oxa-2(4,2)-thiazola-1(5,3)-indola-6(1,3)-pyridazinacycloundecaphane-4-yl)-2,3-dimethylcyclopropane-1-carboxamide]  116 nM
8. CCn1c(-c2cc(-c3ccc(CN4CCN(C)CC4)cc3)cnc2[C@H](C)OC)c2c3cc(ccc31)-c1csc(n1)C[C@H](NC(=O)[C@H]1C[C@@H]1C)C(=O)N1CCC[C@H](N1)C(=O)OCC(C)(C)C2 [Compound 8′, (1S,2S)-N-((6^3S,4S,Z)-1^1-ethyl-1^2-(2-((S)-1-methoxyethyl)-5-(4-((4-methylpiperazin-1-yl)methyl)phenyl)pyridin-3-yl)-10,10-dimethyl-5,7-dioxo-6^1,6^2,6^3,6^4,6^5,6^6-hexahydro-1^1H-8-oxa-2(4,2)-thiazola-1(5,3)-indola-6(1,3)-pyridazinacycloundecaphane-4-yl)-2-methylcyclopropane-1-carboxamide]  236 nM
9. CCn1c(-c2cc(-c3cccc(CN(C)C)c3)cnc2[C@H](C)OC)c2c3cc(ccc31)-c1csc(n1)C[C@H](NC(=O)[C@H]1[C@H](C)[C@@H]1C)C(=O)N1CCC[C@H](N1)C(=O)OCC(C)(C)C2 [Compound 4′, (1r,2R,3S)-N-((6^3S,4S,Z)-1^2-(5-(3-((dimethylamino)methyl)phenyl)-2-((S)-1-methoxyethyl)pyridin-3-yl)-1^1-ethyl-10,10-dimethyl-5,7-dioxo-6^1,6^2,6^3,6^4,6^5,6^6-hexahydro-1^1H-8-oxa-2(4,2)-thiazola-1(5,3)-indola-6(1,3)-pyridazinacycloundecaphane-4-yl)-2,3-dimethylcyclopropane-1-carboxamide]  646 nM
10. CCn1c(-c2cc(-c3ccc4c(c3)CCN(C)C4)cnc2C(C)OC)c2c3cc(ccc31)-c1csc(n1)CC(NC(=O)C1C(C)C1C)C(=O)N1CCCC(N1)C(=O)OCC(C)(C)C2 [Compound 3′, (1r,2R,3S)-N-((6^3S,4S,Z)-1^1-ethyl-1^2-(2-((S)-1-methoxyethyl)-5-(2-methyl-1,2,3,4-tetrahydroisoquinolin-6-yl)pyridin-3-yl)-10,10-dimethyl-5,7-dioxo-6^1,6^2,6^3,6^4,6^5,6^6-hexahydro-1^1H-8-oxa-2(4,2)-thiazola-1(5,3)-indola-6(1,3)-pyridazinacycloundecaphane-4-yl)-2,3-dimethylcyclopropane-1-carboxamide]  1230 nM
11. CCn1c(-c2cc(-c3ccc(CN4CCC(F)C4)cc3)cnc2C(C)OC)c2c3cc(ccc31)-c1csc(n1)CC(NC(=O)C1CC1C)C(=O)N1CCCC(N1)C(=O)OCC(C)(C)C2 [Compound 6′, (1S,2S)-N-((6^3S,4S,Z)-1^1-ethyl-1^2-(5-(4-(((R)-3-fluoropyrrolidin-1-yl)methyl)phenyl)-2-((S)-1-methoxyethyl)pyridin-3-yl)-10,10-dimethyl-5,7-dioxo-6^1,6^2,6^3,6^4,6^5,6^6-hexahydro-1^1H-8-oxa-2(4,2)-thiazola-1(5,3)-indola-6(1,3)-pyridazinacycloundecaphane-4-yl)-2-methylcyclopropane-1-carboxamide]  1460 nM
12. CCn1c(-c2cc(-c3nc(C)no3)cnc2[C@H](C)OC)c2c3cc(ccc31)-c1csc(n1)C[C@H](NC(=O)[C@H]1C[C@@H]1C)C(=O)N1CCC[C@H](N1)C(=O)OCC(C)(C)C2 [Compound 21′, (1S,2S)-N-((6^3S,4S,Z)-1^1-ethyl-1^2-(2-((S)-1-methoxyethyl)-5-(3-methyl-1,2,4-oxadiazol-5-yl)pyridin-3-yl)-10,10-dimethyl-5,7-dioxo-6^1,6^2,6^3,6^4,6^5,6^6-hexahydro-1^1H-8-oxa-2(4,2)-thiazola-1(5,3)-indola-6(1,3)-pyridazinacycloundecaphane-4-yl)-2-methylcyclopropane-1-carboxamide]  1770 nM
13. CCn1c(-c2cc(-c3ccc4c(c3)CN(C)CC4)cnc2C(C)OC)c2c3cc(ccc31)-c1csc(n1)CC(NC(=O)C1CC1C)C(=O)N1CCCC(N1)C(=O)OCC(C)(C)C2 [Compound 10′, (1S,2S)-N-((6^3S,4S,Z)-1^1-ethyl-1^2-(2-((S)-1-methoxyethyl)-5-(2-methyl-1,2,3,4-tetrahydroisoquinolin-7-yl)pyridin-3-yl)-10,10-dimethyl-5,7-dioxo-6^1,6^2,6^3,6^4,6^5,6^6-hexahydro-1^1H-8-oxa-2(4,2)-thiazola-1(5,3)-indola-6(1,3)-pyridazinacycloundecaphane-4-yl)-2-methylcyclopropane-1-carboxamide]  1800 nM
14. CCn1c(-c2cc(-c3ccc(CN4CCOCC4)cc3)cnc2C(C)OC)c2c3cc(ccc31)-c1csc(n1)CC(NC(=O)C1C(C)C1C)C(=O)N1CCCC(N1)C(=O)OCC(C)(C)C2 [Compound 1′, (1r,2R,3S)-N-((6^3S,4S,Z)-1^1-ethyl-1^2-(2-((S)-1-methoxyethyl)-5-(4-(morpholinomethyl)phenyl)pyridin-3-yl)-10,10-dimethyl-5,7-dioxo-6^1,6^2,6^3,6^4,6^5,6^6-hexahydro-1^1H-8-oxa-2(4,2)-thiazola-1(5,3)-indola-6(1,3)-pyridazinacycloundecaphane-4-yl)-2,3-dimethylcyclopropane-1-carboxamide]  4770 nM
